{"source": "patent US20050033035A1", "about": "“Mutants of igf binding proteins and methods of production of antagonists thereof” (priority 2001, published 2005)", "key": {"[1]": {"target": "T1, IGFBP-5 (Homo sapiens, UniProt P24593)", "T1 construct": "His-tag (N); T7-tag (pET-28a construct only) (N); made in house; host or cells: E. coli BL21", "experiment": "Detection of ligand binding by 15N-HSQC NMR titration", "method": "Ligand binding was detected by acquiring ^15N—HSQC spectra. All NMR spectra were acquired at 300 K on Bruker DRX600 spectrometer. The samples for NMR spectroscopy were concentrated and dialyzed against PBS buffer. Typically, the sample concentration was varied from 0.3 to 1.0 mM. Before measuring, the sample was centrifuged in order to sediment aggregates and other macroscopic particles. 450 μl of the protein solution were mixed with 50 μl of D2O (5-10%) and transferred to an NMR sample tube. The stock solutions of compounds were 100 mM either in water or in perdeuterated DMSO. pH was maintained constant during the whole titration. The binding was monitored by observation of the changes in the ^15N—HSQC spectrum. Dissociation constants were obtained by monitoring the chemical shift changes of the backbone amide of several amino acid residues (Table 9) as a function of ligand concentration. Data were fit using a single binding site model."}, "[2]": {"target": "T2, complex of IGFBP-5 and IGF-I (Homo sapiens, UniProt P24593)", "T2 sequence (P24593 21-272, one chain of several)": "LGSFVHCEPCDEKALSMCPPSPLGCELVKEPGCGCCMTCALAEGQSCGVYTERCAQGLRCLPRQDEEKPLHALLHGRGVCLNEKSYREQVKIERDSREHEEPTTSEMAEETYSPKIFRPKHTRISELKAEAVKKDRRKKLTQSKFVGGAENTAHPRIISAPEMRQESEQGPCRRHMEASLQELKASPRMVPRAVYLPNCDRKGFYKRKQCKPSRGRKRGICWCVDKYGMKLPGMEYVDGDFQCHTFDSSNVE", "experiment": "Release of IGF-I from the complex with IGFBP-5 measured by 125I-IGF-I binding to IGF-R expressing NIH 3T3 cells", "type": "cell-based", "settings": "10 or 100 nM IGFBP-5, 5 pM 125I-IGF-I, FIG. 7", "method": "Kalus, W., et al., in EMBO J. 17 (1998) 6558-6572, describe the inhibition of the binding of IGF-I to IGF-R expressing NIH 3T3 cells by formation of an inhibitory complex. This assay was used to investigate the release of IGF-I from the inhibitory complex with IGFBP-5.\nNIH 3T3 cells stably expressing human IGF-R were grown in culture dishes in Dulbecco's modified Eagle's medium (DMEM) containing 10% fetal calf serum. Cells were washed carefully with PBS and incubated with 5 ml of 50 mM EDTA in PBS for 45 min. Cells were removed from the plate, washed once with PBS and once with binding buffer (100 mM HEPES pH 7.6, 120 mM NaCl, 5 mM KCl, 1.2 mM MgSO 4, 1 mM EDTA, 10 mM glucose, 15 mM sodium acetate, 1% dialysed BSA), and resuspended in binding buffer to determine the cell number. 5 pM ^125 I-IGF-I (Amersham) was preincubated with either 10 or 100 nM IGFBP-5 alone or in combination with 33 μM of the different compounds 1,2,3,4B and 4C at 4° C. for 1 h. Then 400 μl of the cell suspension corresponding to 2×10^5 cells were added to give a total volume of 500 μl. After 12 h incubation at 4° C., cells were washed with binding buffer (at 4° C.). Free hormone was removed by repeated centrifugation and resuspension in the binding buffer. The 125 I radioactivity bound to the cells was determined in a gamma-counter."}, "[3]": {"target": "T2, complex of IGFBP-5 and IGF-I", "experiment": "Release of IGF-I from the complex with IGFBP-5 measured by IGF-R activation (autophosphorylation) in NIH 3T3 cells", "type": "cell-based", "settings": "FIG. 8", "source_text": "Kalus, W., et al., in EMBO J. 17 (1998) 6558-6572, describe the inhibition of the activation and autophosphorylation of the IGF-R by IGF-I in the presence of IGFBP-5. This assay was used to further investigate the release of IGF-I from the inhibitory complex with IGFBP-5 by compound 3. Binding of compound 3 to IGFBP-5 and dissociation of the complex of the binding protein with IGF-I should result in an activation and autophosphorylation of the IGF-R in the presence of IGFBP-5.\nConfluent monolayers of the NIH 3T3 cells stably expressing human IGF-R in 3.5 cm dishes were starved in DMEM containing 0.5% dialysed fetal calf serum. After 48 h, cells were incubated without any hormone or with 10 nM IGF-I. Samples were preincubated with 100 nM IGFBP-5 and increasing concentrations of compound 3 from 0 to 50 μM at room temperature for 1 h. After a 10 min stimulation at 37° C., the medium was removed and cells were lysed with 250 μl of lysing buffer (20 mM HEPES pH 7.5, 150 mM NaCl, 10% glycerol, 1% NP-40, 1.5 mM MgCl 2, 1 mM EGTA), 10 mM sodium orthovanadate, and protease inhibitor cocktail Complete (Roche Molecular Biochemicals) for 10 min on ice. […] The protein concentration of the supernatant was determined using the BCA kit from Pierce according to the manufacturer's instructions. […]"}, "[4]": {"target": "IGF-II (Homo sapiens, UniProt P01344)", "sequence (P01344 25-91 limits assumed)": "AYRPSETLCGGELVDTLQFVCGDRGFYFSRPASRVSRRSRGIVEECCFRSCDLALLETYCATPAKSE", "settings": "domain of IGFBP-5 residues 40-92; cited from earlier work"}, "[5]": {"target": "IGF-I (Homo sapiens, UniProt P05019)", "sequence (P05019 49-118 limits assumed)": "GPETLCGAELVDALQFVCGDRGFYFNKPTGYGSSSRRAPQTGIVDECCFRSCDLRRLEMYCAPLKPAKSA", "settings": "domain of IGFBP-5 residues 40-92; cited from earlier work"}, "[6]": {"system": "tumor growth", "settings": "1 mg/dose daily in mice; cited from earlier work"}, "[7]": {"system": "MCF-7 cells", "settings": "in vitro; cited from earlier work"}, "[8]": {"system": "MDA-MB-435A cells", "settings": "in vitro; cited from earlier work"}, "[9]": {"system": "MDA-MB-231 cells", "settings": "in vivo in mice; cited from earlier work"}, "[10]": {"settings": "changes in chemical shift for the residue L81, read-out: KD"}}, "note": "Like-named read-outs stand apart in the source and are kept apart here."}
{"molecule": "O=C(N[C@@H](Cc1ccc(OP(=O)(O)O)cc1)C(=O)O)OCC1c2ccccc2-c2ccccc21", "note": "[Compound 2, Nα-FMOC-O-phospho-L-tyrosine]", "values": [{"measurement": "Kd", "setting": "[1]; average over residues, read-out: ligand in DMSO KD", "value": "1.71 ± 0.37", "unit": "mM"}, {"measurement": "Kd", "setting": "[1]; average over residues, read-out: ligand in PBS KD", "value": "2.21 ± 0.4", "unit": "mM"}, {"measurement": "Kd", "setting": "[1]; [10]", "value": "2.78 ± 0.3", "unit": "mM"}, {"measurement": "Kd", "setting": "[1]; residue K91, read-out: ligand in DMSO KD", "value": "2.42 ± 0.18", "unit": "mM"}, {"measurement": "Kd", "setting": "[1]; residue K91, read-out: ligand in PBS KD", "value": "2.12 ± 1.03", "unit": "mM"}, {"measurement": "Kd", "setting": "[1]; residue L73, read-out: ligand in DMSO KD", "value": "1.31 ± 0.17", "unit": "mM"}, {"measurement": "Kd", "setting": "[1]; residue L73, read-out: ligand in PBS KD", "value": "2.93 ± 1.41", "unit": "mM"}, {"measurement": "Kd", "setting": "[1]; residue R87, read-out: ligand in DMSO KD", "value": "1.64 ± 0.12", "unit": "mM"}, {"measurement": "Kd", "setting": "[1]; residue R87, read-out: ligand in PBS KD", "value": "2.36 ± 1", "unit": "mM"}, {"measurement": "Kd", "setting": "[1]; residue S85, read-out: ligand in DMSO KD", "value": "1.38 ± 0.1", "unit": "mM"}, {"measurement": "Kd", "setting": "[1]; residue S85, read-out: ligand in PBS KD", "value": "2.33 ± 0.94", "unit": "mM"}, {"measurement": "Kd", "setting": "[1]; residue Y50, read-out: ligand in DMSO KD", "value": "1.58 ± 0.09", "unit": "mM"}, {"measurement": "Kd", "setting": "[1]; residue Y50, read-out: ligand in PBS KD", "value": "1.82 ± 0.95", "unit": "mM"}, {"measurement": "Kd", "setting": "[1]; residue Y86, read-out: ligand in DMSO KD", "value": "1.9 ± 0.17", "unit": "mM"}, {"measurement": "Kd", "setting": "[1]; residue Y86, read-out: ligand in PBS KD", "value": "1.72 ± 0.99", "unit": "mM"}]}
{"molecule": "CC(C)(C)Oc1ccc(C[C@H](NC(=O)OCC2c3ccccc3-c3ccccc32)C(=O)O)cc1", "note": "[Compound 2A, Nα-FMOC-O-tert-butyl-L-tyrosine]", "values": [{"measurement": "Kd", "setting": "[1]; [10]", "value": "0.718 ± 0.079", "unit": "mM"}]}
{"molecule": "O=C(N[C@@H](Cc1ccccc1)C(=O)O)OCC1c2ccccc2-c2ccccc21", "note": "[Compound 2B, Nα-FMOC-L-phenylalanine]", "values": [{"measurement": "Kd", "setting": "[1]; [10]", "value": "1.08 ± 0.507", "unit": "mM"}]}
{"molecule": "O=C(Nc1ccc(S(=O)(=O)F)cc1)c1cc(N=Nc2cc(Cl)ccc2Cl)c2ccccc2c1O", "note": "[Compound 3, 4-(2,5-Dichlorophenylazo)-4′fluorosulfonyl-1-hydroxy-2-naphthanilide]", "values": [{"measurement": "release of IGF-I from the complex and binding of IGF-I to IGF-R expressing cells", "setting": "[2]; 33 μM compound", "value": "release of IGF-I from the complex"}, {"measurement": "autophosphorylation of IGF-R in presence of inactive complex of IGFBP-5 and IGF-I", "setting": "[3]; 50 uM compound 3, 100 nM IGFBP-5, 10 nM IGF-I", "value": "increased autophosphorylation of the receptor"}]}
{"molecule": "IGFBP-5: human insulin-like growth factor binding protein 5, SwissProt P 24593", "values": [{"measurement": "binding of labeled IGF-I to NIH 3T3 cells", "setting": "[2]", "value": "inhibited"}, {"measurement": "autophosphorylation of IGF-R by IGF-I", "setting": "[3]; 100 nM IGFBP-5, 10 nM IGF-I", "value": "inhibited"}]}
{"molecule": "mini-IGFBP-5: domain of IGFBP-5 between residues 40-92 (GSALAEGQSCGVYTERCAQGLRCLPRQDEEKPLHALLHGRGVCLNEKSYREQVKI)", "values": [{"measurement": "Kd", "setting": "[4]", "value": 6, "unit": "nM"}, {"measurement": "Kd", "setting": "[5]", "value": 37, "unit": "nM"}]}
{"molecule": "pegylated IGFBP-1: IGFBP-1 covalently coupled to polyethylene glycol (van den Berg) (conjugate, UniProt P08833 26-259, looked up, PEG) Insulin-like growth …: APWQCAPCSAEKLALCPPVSASCSEVTRSAGCGCCPMCALPLGAACGVATARCARGLSCRALPGEQQPLHALTRGQGACVQESDASAPHAAEAGSPESPESTEITEEELLDNFHLMAPSEEDHSILWDAISTYDGSKALHVTNIKKWKEPCRIELYRVVESLAKAQETSGEEISKFYLPNCNKNGFYHSRQCETSMDGEAGLCWCVYPWNGKRIPGSPEIRGDPNCQIYFNVQN", "values": [{"measurement": "inhibition of tumor growth (response)", "setting": "[6]", "value": "only partial response"}]}
{"molecule": "IGFBP-1: human insulin-like growth factor binding protein 1, SwissProt P 08833 (protein, UniProt P08833 26-259, looked up) Insulin-like growth …: APWQCAPCSAEKLALCPPVSASCSEVTRSAGCGCCPMCALPLGAACGVATARCARGLSCRALPGEQQPLHALTRGQGACVQESDASAPHAAEAGSPESPESTEITEEELLDNFHLMAPSEEDHSILWDAISTYDGSKALHVTNIKKWKEPCRIELYRVVESLAKAQETSGEEISKFYLPNCNKNGFYHSRQCETSMDGEAGLCWCVYPWNGKRIPGSPEIRGDPNCQIYFNVQN", "values": [{"measurement": "growth of MCF-7 cells", "setting": "[7]", "value": "inhibits the growth"}, {"measurement": "growth of MDA-MB-435A cells", "setting": "[8]", "value": "inhibits the growth"}, {"measurement": "growth of tumors formed MDA-MB-231 cells", "setting": "[9]", "value": "inhibits the growth"}]}
